Our source for the IC50 values is patent US11752138B2 (VANDERBILT UNIVERSITY, priority 2020, dated 2023).

As usually defined, the IC50 is the concentration at which inhibition is half-maximal.

This experiment concerns the target Human LDHA (Homo sapiens (Human), UniProt P00338). In words: human LDHA primary biochemical assay (Example 1). As to conditions: biochemical LDHA inhibitory activity, assay of Example 1. The source says:
This example describes a human LDHA primary biochemical assay employed in the characterization of a compound of Formula I in an embodiment of the dislcosure.
Test compounds were placed in a Greiner Bio-One (Monroe, N.C.) 1536-well black solid bottom assay plate. 200 millimolar (mM) Tris HCl, pH 7.4, 100 micromolar (μM) EDTA and 0.01% TWEEN-20™, final concentration, was used as the assay buffer. The LDHA reagent was 2 nanomolar (nM) Human LDHA (Meridian Life Science, Inc., Memphis, Tenn.), final concentration, in assay buffer. The substrate reagent was 0.06 mM NADH and 0.2 mM sodium pyruvate, final concentration, in assay buffer. The resazurin/diaphorase coupling reagent was 0.037 mM resazurin and 0.133 milligrams per milliliter (mg/mL) diaphorase, final concentration, in assay buffer. The inhibition of LDHA activity was measured by fluorescence emission. […]

The compound `NS(=O)(=O)c1ccc(Cc2c(-c3ccc(F)c(C4=CCC(C(F)(F)F)CC4)c3)nn(-c3nc(C(=O)O)cs3)c2CC2CC2)cc1F` (stereo not drawn) [Compound 102, 2-(5-(cyclopropylmethyl)-3-(6-fluoro-4′-(trifluoromethyl)-2′,3′,4′,5′-tetrahydro-[1,1′-biphenyl]-3-yl)-4-(3-fluoro-4-sulfamoylbenzyl)-1H-pyrazol-1-yl)thiazole-4-carboxylic acid] returned an IC50 below 100 nM.
As to `NS(=O)(=O)c1ccc(Cc2c(-c3ccc(F)c(C4=Cc5ccccc5C4)c3)nn(-c3nc(C(=O)O)cs3)c2CC2CC2)cc1F` [Compound 105, 2-(5-(cyclopropylmethyl)-3-(4-fluoro-3-(1H-inden-2-yl)phenyl)-4-(3-fluoro-4-sulfamoylbenzyl)-1H-pyrazol-1-yl)thiazole-4-carboxylic acid], the IC50 is below 100 nM.
Under `NS(=O)(=O)c1ccc(Cc2c(-c3ccc(F)c(C4=CCC(F)(F)CC4)c3)nn(-c3nc(C(=O)O)cs3)c2CC2CC2)cc1F` [Compound 107, 2-(5-(cyclopropylmethyl)-4-(3-fluoro-4-sulfamoylbenzyl)-3-(4′,4′,6-trifluoro-2′,3′,4′,5′-tetrahydro-[1,1′-biphenyl]-3-yl)-1H-pyrazol-1-yl)thiazole-4-carboxylic acid] stands below 100 nM.
The value for `NS(=O)(=O)c1ccc(Cc2c(-c3ccc(F)c(C4=CCC5(CC4)CC5)c3)nn(-c3nc(C(=O)O)cs3)c2CC2CC2)cc1F` [Compound 108, 2-(5-(cyclopropylmethyl)-3-(4-fluoro-3-(spiro[2.5]oct-5-en-6-yl)phenyl)-4-(3-fluoro-4-sulfamoylbenzyl)-1H-pyrazol-1-yl)thiazole-4-carboxylic acid] was below 100 nM; that for `CCC#Cc1cc(-c2nn(-c3nc(C(=O)O)cs3)c(CC3CC3)c2Cc2ccc([S+](N)(=O)[O-])c(F)c2)ccc1F` [Compound 109, 2-(3-(3-(but-1-yn-1-yl)-4-fluorophenyl)-5-(cyclopropylmethyl)-4-(3-fluoro-4-sulfamoylbenzyl)-1H-pyrazol-1-yl)thiazole-4-carboxylic acid] was below 100 nM.
Under `Cc1ccc(C2CC(c3cccc(-c4nn(-c5nc(C(=O)O)cs5)c(CC5CC5)c4Cc4ccc(S(N)(=O)=O)c(F)c4)c3)C2)s1` (stereo not drawn) [Compound 133, 2-(5-(cyclopropylmethyl)-4-(3-fluoro-4-sulfamoylbenzyl)-3-(3-(3-(5-methylthiophen-2-yl)cyclobutyl)phenyl)-1H-pyrazol-1-yl)thiazole-4-carboxylic acid] stands below 100 nM; under `Cc1ccc(C#Cc2cccc(-c3nn(-c4nc(C(=O)O)cs4)c(C4CC4C4CC4)c3Cc3ccc(S(N)(=O)=O)c(F)c3)c2)s1` (stereo not drawn) [Compound 134, 2-(5-([1,1′-bi(cyclopropan)]-2-yl)-4-(3-fluoro-4-sulfamoylbenzyl)-3-(3-((5-methylthiophen-2-yl)ethynyl)phenyl)-1H-pyrazol-1-yl)thiazole-4-carboxylic acid], 100 to 1000 nM; under `NS(=O)(=O)c1ccc(Cc2c(-c3ccc(F)c(-c4ccc(F)c(F)c4)c3)nn(-c3nc(C(=O)O)cs3)c2CC2CC2)cc1F` [Compound 136, 2-(5-(cyclopropylmethyl)-4-(3-fluoro-4-sulfamoylbenzyl)-3-(3′,4′,6-trifluoro-[1,1′-biphenyl]-3-yl)-1H-pyrazol-1-yl)thiazole-4-carboxylic acid], below 100 nM.
Turning to `NS(=O)(=O)c1ccc(Cc2c(-c3ccc(F)c(-c4ccc(C(F)(F)F)cc4)c3)nn(-c3nc(C(=O)O)cs3)c2CC2CC2)cc1F` [Compound 138, 2-(5-(cyclopropylmethyl)-3-(6-fluoro-4′-(trifluoromethyl)-[1,1′-biphenyl]-3-yl)-4-(3-fluoro-4-sulfamoylbenzyl)-1H-pyrazol-1-yl)thiazole-4-carboxylic acid], the IC50 is below 100 nM.
For `NS(=O)(=O)c1ccc(Cc2c(-c3ccc(F)c(-c4ccc(Cl)cc4)c3)nn(-c3nc(C(=O)O)cs3)c2CC2CC2)cc1F` [Compound 139, 2-(3-(4′-chloro-6-fluoro-[1,1′-biphenyl]-3-yl)-5-(cyclopropylmethyl)-4-(3-fluoro-4-sulfamoylbenzyl)-1H-pyrazol-1-yl)thiazole-4-carboxylic acid], the IC50 was below 100 nM.
For `CC(C)c1ccc(-c2cc(-c3nn(-c4nc(C(=O)O)cs4)c(CC4CC4)c3Cc3ccc(S(N)(=O)=O)c(F)c3)ccc2F)cc1` [Compound 142, 2-(5-(cyclopropylmethyl)-3-(6-fluoro-4′-isopropyl-[1,1′-biphenyl]-3-yl)-4-(3-fluoro-4-sulfamoylbenzyl)-1H-pyrazol-1-yl)thiazole-4-carboxylic acid], the IC50 fell in the range of 100 to 1000 nM.
Compound `NS(=O)(=O)c1ccc(Cc2c(-c3ccc(F)c(-c4ccc5c(c4)CCCC5)c3)nn(-c3nc(C(=O)O)cs3)c2CC2CC2)cc1F` [Compound 143, 2-(5-(cyclopropylmethyl)-3-(4-fluoro-3-(5,6,7,8-tetrahydronaphthalen-2-yl)phenyl)-4-(3-fluoro-4-sulfamoylbenzyl)-1H-pyrazol-1-yl)thiazole-4-carboxylic acid] yielded an IC50 below 100 nM.
The value for `NS(=O)(=O)c1ccc(Cc2c(-c3ccc(F)c(-c4ccc(Cl)c(F)c4)c3)nn(-c3nc(C(=O)O)cs3)c2CC2CC2)cc1F` [Compound 144, 2-(3-(4′-chloro-3′,6-difluoro-[1,1′-biphenyl]-3-yl)-5-(cyclopropylmethyl)-4-(3-fluoro-4-sulfamoylbenzyl)-1H-pyrazol-1-yl)thiazole-4-carboxylic acid] was below 100 nM.
Under `NS(=O)(=O)c1ccc(Cc2c(-c3cccc(C(=O)N4CCCC4)c3)nn(-c3nc(C(=O)O)cs3)c2CC2CC2)cc1` [Compound 145, 2-(5-(cyclopropylmethyl)-3-(3-(pyrrolidine-1-carbonyl)phenyl)-4-(4-sulfamoylbenzyl)-1H-pyrazol-1-yl)thiazole-4-carboxylic acid] stands below 100 nM.
Under `NS(=O)(=O)c1ccc(Cc2c(-c3ccc(F)c(C4=CCCCC4)c3)nn(-c3nc(C(=O)O)cs3)c2CC2CC2)cc1F` [Compound 146, 2-(5-(cyclopropylmethyl)-3-(6-fluoro-2′,3′,4′,5′-tetrahydro-[1,1′-biphenyl]-3-yl)-4-(3-fluoro-4-sulfamoylbenzyl)-1H-pyrazol-1-yl)thiazole-4-carboxylic acid] stands below 100 nM; under `CC(C)(C)NC(=O)c1cc(-c2nn(-c3nc(C(=O)O)cs3)c(CC3CC3)c2Cc2ccc([S+](N)(=O)[O-])c(F)c2)ccc1F` [Compound 147, 2-(3-(3-(tert-butylcarbamoyl)-4-fluorophenyl)-5-(cyclopropylmethyl)-4-(3-fluoro-4-sulfamoylbenzyl)-1H-pyrazol-1-yl) thiazole-4-carboxylic acid], below 100 nM.
Consider `NS(=O)(=O)c1ccc(Cc2c(-c3ccc(F)c(-c4cccc(Cl)c4)c3)nn(-c3nc(C(=O)O)cs3)c2CC2CC2)cc1F` [Compound 149, 2-(3-(3′-chloro-6-fluoro-[1,1′-biphenyl]-3-yl)-5-(cyclopropylmethyl)-4-(3-fluoro-4-sulfamoylbenzyl)-1H-pyrazol-1-yl)thiazole-4-carboxylic acid], for which the IC50 was below 100 nM.
On to `N[S+](=O)([O-])c1ccc(Cc2c(-c3ccc(F)c(C(=O)N4CCCC4)c3)nn(-c3nc(C(=O)O)cs3)c2CC2CC2)cc1F` [Compound 154], for which the IC50 is below 100 nM.
